Source: US20260021061A1, “ARIADNE AND ANALOGS FOR THE TREATMENT OF NEUROLOGICAL AND NEUROMUSCLAR DISORDERS” (priority 2022, published 2026)
Where two headings read alike, the source gives them in different places.

Experiments:
[1] = system: C57BL/6J mice; assay: Head twitch response (HTR) in mice; format: in vivo, mouse; settings: mouse, in vivo
Protocol: All samples were prepared the same day testing was performed. Solids were weighed into small vials and dissolved in USP grade 0.85% saline with addition of 2 molar equivalents of glacial acetic acid. Sonication and gentle heating were applied until complete dissolution. The compounds were subsequently filtered through 0.45 μm filters into a new glass vial. All compounds were administered at a 1 mg/kg subcutaneous dose at a volume of 10 mL/kg of body weight. Volinanserin hydrochloride salt (MDL 100907) was purchased from Toronto Research Chemicals.
All experimental procedures involving animals were approved by an Institutional Animal Care and Use Committee (IACUC) and adhered to principles described in the National Institutes of Health Guide for the Care and Use of Laboratory Animals. The studies were conducted at AAALAC accredited facilities. Animals received regular veterinary care (weekly by institutional veterinarians) including daily health monitoring (by experimenters) of the animals (observing home cage behaviors, nesting, and body weight). All procedures were designed to minimize any stress/distress. Healthy adult male mice C57BL/6J (8-12 weeks, 26-33 g) were purchased from the Jackson Laboratory (Bar Harbor, ME) and housed 5 mice per cage with food and water available ad libitum. Mice were maintained on a 12-h light/dark cycle (lights on 7:00-19:00) and all testing was done in the light cycle. Temperature was kept constant at 22±2° C., and relative humidity was maintained at 50±5%
The head-twitch response evaluation was performed by a trained observer who was blinded to both drug and dose. Mice were moved to the testing room 30 min before the experiment to allow for acclimation. The body weight of each mouse was recorded. Mice were administered either a 1, 3, 10, or 30 mg/kg s.c. dose of compound solution (volume of injection 260-330 μL based on body weight). […] The total number of head-twitches over the 15 minute period were recorded. Five mice were used per dose.
DOI was tested at the doses of 0.3, 1, 3, and 10 mg/kg (s.c., 5 mice per dose) and testing began immediately after administration of the compound. Ariadne was tested at the doses of 1, 3, 10, and 30 mg/kg (s.c., 5 mice per dose) and there was a 10 min interval between treatment and testing.

[2] = target: T1, 5-HT2A (Homo sapiens, UniProt P28223); assay: IP1 agonism (IP1 formation assay), Cerep, Eurofins; format: cell-based; set-up: purchased Cerep, Eurofins (contract assay); settings: duplicate averages only
Text: (§1) FIGS. 8A-B Comparison of 5-HT2A (a) and 5-HT2B (b) receptor in IP1 formation assay for selected compounds, performed at Cerep, Eurofins.
(§2) IP1 agonism summary for selected compounds (duplicate averages only), performed at Cerep, Eurofins.

[3] = target: 5-HT2B (Homo sapiens, UniProt P41595); assay: IP1 agonism (IP1 formation assay), Cerep, Eurofins; format: cell-based; set-up: purchased Cerep, Eurofins (contract assay); settings: duplicate averages only
Text: as §1, §2

[4] = Pharmacokinetic assessment, plasma and brain; format: in vivo, male C57BL/6 mice; settings: SC 10 mg/kg; for Mean brain Concentration (ng/g): LLOQ 2.06 ng/mL for brain
Protocol: PK assessments were performed at Sai Life (Telangana, India) according to the following general procedure. A total twenty-seven male C57BL/6 mice were used in this study with 3 mice per time point. Animals were administered subcutaneously at 10 mg/kg dose of test article. The formulation vehicle used was 0.9% normal saline. Blood samples (approximately 60 μL) were collected under light isoflurane anesthesia (Surgivet®) from retro orbital plexus from a set of three mice at 0.08, 0.25, 0.5, 1, 2, 4, 8, 24 and 48 hr. Immediately after blood collection, plasma was harvested by centrifugation at 4000 rpm, 10 min at […] and samples were stored at −70±10° C. until bioanalysis. Following blood collection, immediately animals were sacrificed followed by cutting abdominal vena-cava and whole body was perfused from heart using 10 mL of normal saline. Brain samples were collected from set of three mice at 0.08, 0.25, 0.5, 1, 2, 4, 8, 24 and 48 hr. After isolation, brain samples were rinsed three times in ice cold normal saline (for 5-10 seconds/rinse using ˜5-10 mL normal saline in disposable petri dish for each rinse) and dried on blotting paper. Brain samples were homogenized using ice-cold phosphate buffer saline (pH−7.4). Total homogenate volume was three times the tissue weight. All homogenates were stored below −70±10° C. until bioanalysis. All samples were processed for analysis by protein precipitation method and analyzed with fit-for-purpose LC-MS/MS method (LLOQ=5.16 ng/mL for plasma and 2.06 ng/mL for brain).

[5] = target: T1, 5-HT2A; assay: G protein (Gq) dissociation BRET assay; format: cell-based; set-up: host or cells: HEK293T (ATCC CRL-11268); settings: by Gq dissociation signaling potency

T1 sequence (P28223 whole entry): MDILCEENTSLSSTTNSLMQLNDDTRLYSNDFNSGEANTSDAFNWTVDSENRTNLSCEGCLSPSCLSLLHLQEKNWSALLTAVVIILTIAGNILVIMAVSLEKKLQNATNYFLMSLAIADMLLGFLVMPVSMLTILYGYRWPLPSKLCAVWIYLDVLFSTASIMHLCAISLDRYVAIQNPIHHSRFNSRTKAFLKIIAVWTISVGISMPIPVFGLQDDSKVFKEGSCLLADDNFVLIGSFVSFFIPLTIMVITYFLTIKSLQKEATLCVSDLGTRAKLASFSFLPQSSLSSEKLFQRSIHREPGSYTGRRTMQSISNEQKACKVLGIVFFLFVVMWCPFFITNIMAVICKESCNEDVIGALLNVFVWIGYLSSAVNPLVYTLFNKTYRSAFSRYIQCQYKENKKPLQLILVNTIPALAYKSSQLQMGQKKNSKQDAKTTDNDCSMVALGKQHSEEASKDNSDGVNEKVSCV
Sequence of 5-HT2B (P41595 whole entry): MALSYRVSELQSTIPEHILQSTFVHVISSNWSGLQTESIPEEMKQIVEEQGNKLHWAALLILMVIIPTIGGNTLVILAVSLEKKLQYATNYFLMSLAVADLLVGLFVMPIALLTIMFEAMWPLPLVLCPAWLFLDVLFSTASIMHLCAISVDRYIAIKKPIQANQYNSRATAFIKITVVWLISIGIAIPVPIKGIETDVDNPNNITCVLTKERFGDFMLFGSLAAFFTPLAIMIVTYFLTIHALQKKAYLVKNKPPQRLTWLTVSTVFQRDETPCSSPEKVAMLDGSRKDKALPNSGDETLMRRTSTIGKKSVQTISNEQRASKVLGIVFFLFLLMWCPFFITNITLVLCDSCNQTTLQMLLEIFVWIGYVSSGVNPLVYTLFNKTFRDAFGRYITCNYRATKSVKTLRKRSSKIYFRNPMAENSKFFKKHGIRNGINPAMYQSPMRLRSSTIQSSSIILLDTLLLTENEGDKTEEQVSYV

Question: What does the source list for `CCC(N)Cc1cc(OC)c(C(F)(F)F)cc1OC` (racemic) [Compound 29, 1-(2,5-dimethoxy-4-(trifluoromethyl)phenyl)butan-2-amine]?
Answer: HTR in presence of MDL100,907 (volinanserin), 5-HT2A antagonist [1]: completely inhibited; EC50 ([2]; 5-HT2a (IP1 agonism), Table 2): 5e-08 M; EC50 ([2]; EC50 (5-HT2A) (M), Table 7, IP1 agonism): 6.3e-08 M; EC50 ([3]; 5-HT2b (IP1 agonism), Table 2): 6.3e-07 M; EC50 ([3]; EC50 (5-HT2B) (M), Table 7, IP1 agonism): 4e-07 M; Mean brain Concentration (ng/g) ([4]; 24 hr): BLQ; Mean plasma Concentration (ng/mL) ([4]; 24 hr, LLOQ 5.16 ng/mL): BLQ; Mean brain Concentration (ng/g) ([4]; 48 hr): BLQ; Mean plasma Concentration (ng/mL) ([4]; 48 hr, LLOQ 5.16 ng/mL): BLQ; Kp at 0.083 h ([4]; male, C57BL/6, mouse, brain and plasma, 0.083 hr, read-out: Brain/Plasma ratio): 4.66; Kp at 0.25 h ([4]; male, C57BL/6, mouse, brain and plasma, 0.25 hr, read-out: Brain/Plasma ratio): 8.91; Kp at 0.5 h ([4]; male, C57BL/6, mouse, brain and plasma, 0.5 hr, read-out: Brain/Plasma ratio): 8.93; Kp at 1 h ([4]; male, C57BL/6, mouse, brain and plasma, 1 hr, read-out: Brain/Plasma ratio): 18.1; Kp at 2 h ([4]; male, C57BL/6, mouse, brain and plasma, 2 hr, read-out: Brain/Plasma ratio): 18.2; Kp at 4 h ([4]; male, C57BL/6, mouse, brain and plasma, 4 hr, read-out: Brain/Plasma ratio): 15.2; Kp at 8 h ([4]; male, C57BL/6, mouse, brain and plasma, 8 hr, read-out: Brain/Plasma ratio): 12.7; concentration at 0.083 hr ([4]; male, C57BL/6, mouse, brain, 0.083 hr, read-out: Mean brain Concentration): 2010 ng/g; concentration at 0.25 hr ([4]; male, C57BL/6, mouse, brain, 0.25 hr, read-out: Mean brain Concentration): 4160 ng/g; concentration at 0.5 hr ([4]; male, C57BL/6, mouse, brain, 0.5 hr, read-out: Mean brain Concentration): 3770 ng/g; concentration at 1 hr ([4]; male, C57BL/6, mouse, brain, 1 hr, read-out: Mean brain Concentration): 3900 ng/g; concentration at 2 hr ([4]; male, C57BL/6, mouse, brain, 2 hr, read-out: Mean brain Concentration): 1740 ng/g; concentration at 4 hr ([4]; male, C57BL/6, mouse, brain, 4 hr, read-out: Mean brain Concentration): 787 ng/g; concentration at 8 hr ([4]; male, C57BL/6, mouse, brain, 8 hr, read-out: Mean brain Concentration): 170 ng/g; concentration at 0.083 hr ([4]; male, C57BL/6, mouse, plasma, 0.083 hr, read-out: Mean plasma Concentration): 431 ng/mL; concentration at 0.25 hr ([4]; male, C57BL/6, mouse, plasma, 0.25 hr, read-out: Mean plasma Concentration): 467 ng/mL; concentration at 0.5 hr ([4]; male, C57BL/6, mouse, plasma, 0.5 hr, read-out: Mean plasma Concentration): 422 ng/mL; concentration at 1 hr ([4]; male, C57BL/6, mouse, plasma, 1 hr, read-out: Mean plasma Concentration): 216 ng/mL; concentration at 2 hr ([4]; male, C57BL/6, mouse, plasma, 2 hr, read-out: Mean plasma Concentration): 95.5 ng/mL; concentration at 4 hr ([4]; male, C57BL/6, mouse, plasma, 4 hr, read-out: Mean plasma Concentration): 51.9 ng/mL; concentration at 8 hr ([4]; male, C57BL/6, mouse, plasma, 8 hr, LLOQ 5.16 ng/mL, read-out: Mean plasma Concentration): 13.4 ng/mL; Cmax ([4]; male, C57BL/6, mouse, brain, read-out: Cmax (ng/g), brain): 4160 ng/g; half-life ([4]; male, C57BL/6, mouse, brain, read-out: T1/2 (hr), brain (converted)): 1.79 h; Tmax ([4]; male, C57BL/6, mouse, brain, read-out: Tmax (hr), brain): 0.25 h; AUC(0-t) ([4]; male, C57BL/6, mouse, plasma, read-out: AUClast (hr*ng/mL), plasma): 798 ng·h/mL; Cmax ([4]; male, C57BL/6, mouse, plasma, read-out: Cmax (ng/mL), plasma): 467 ng/mL; half-life ([4]; male, C57BL/6, mouse, plasma, read-out: T1/2 (hr), plasma (converted)): 2.11 h; Tmax ([4]; male, C57BL/6, mouse, plasma, read-out: Tmax (hr), plasma): 0.25 h; selectivity for 5-HT2A over 5-HT2B [5]: 8 fold
